Source: patent US7807673B2, “2-pyrimidinyl pyrazolopyridine ErbB kinase inhibitors” (GlaxoSmithKline LLC, priority 2005, dated 2010)

Tests used:
ErbB2 or EGFR = molecular target: T1, ErbB2 or EGFR; experiment: ErbB enzyme substrate phosphorylation assay (HTRF), Method B (enzyme pre-incubated with compound 1 hour); format: biochemical; conditions: Table 1, enzyme Method B: enzyme mix incubated with compound 1 hour at 20° C., reaction started with substrate mix; class over ErbB2 or EGFR
T1 construct: enzymes purified from a baculovirus expression system
Description: Compounds of the present invention were tested for EGFR, ErbB-2, and ErbB-4 protein tyrosine kinase inhibitory activity in substrate phosphorylation assays using enzymes purified from a baculovirus expression system. Reagent production was conducted essentially as described in Brignola, P. S., et al, (2002) J. Biol. Chem. 277(2): 1576-1585.
The method measures the ability of the isolated enzyme to catalyse the transfer of the gamma-phosphate from ATP onto the tyrosine residue of a biotinylated synthetic peptide referenced “Peptide C” in Brignola, P. S., et al, (2002) J. Biol. Chem. 277(2):1576-1585. The extent of tyrosine phosphorylation was measured using an anti-phosphotyrosine antibody, and quantified by homogenous time-resolved fluorescence (HTRF).
Reactions were performed in black 384-well polystyrene flat-bottom plates in a final volume of 20 μl. Assays were performed by adding 10 μl of each of the following solutions, substrate Mix and enzyme mix: The Substrate mix contained 100 mM 3-[N-morpholino]propanesulfonic acid (MOPS) (pH 7.5), 2 mM MnCl2, 20 μM ATP, 0.01% Tween-20, 0.1 mg/mL (BSA), 0.8 uM peptide substrate, and 1 mM dithiothreitol. The enzyme mix contained 100 mM MOPS (pH7.5); 0.01% Tween-20; 0.1 mg/mL BSA, and either 0.8 nM EGFR, 10 nM ErbB2, or 1 nM ErbB4
During the course of these studies, two separate methods have been used to measure the potency of compounds. In Method A, the substrate mix was added to the compound plates first, then the reaction was started by adding the enzyme mix. In Method B, the enzyme mix was added to the compound plates and the plates were incubated at 20° C. for 1 hour. The reactions were then started by adding the substrate mix.
After initiating the reaction with either method describe above, the reactions were allowed to proceed for 90 minutes at 20° C. The reactions were then terminated by the addition of 20 μl 100 mM EDTA to each well. 40 μl/well of HTRF detection mix were added to the assay plates. The final concentrations of the detection reagents were: 100 mM HEPES (pH7.5), 0.1 mg/mL BSA, 15 nM streptavidin-labeled allophycocyanin (PerkinElmer), and 1 nM europium-labeled anti-phosphotyrosine antibody (PerkinElmer). Assay plates were left unsealed and were counted in a Wallac Multilabel Counter 1420 (PerkinElmer).
Compounds under analysis were dissolved in Me2SO to 1.0 mM and serially diluted 1 to 3 with Me2SO through twelve dilutions. 1 μl of each concentration was transferred to the corresponding well of an assay plate. This creates a final compound concentration range from 0.00027 to 47.6 μM.
The data for dose responses were plotted as % Inhibition calculated with the data reduction formula 100*(1−(U1−C2)/(C1−C2)) versus concentration of compound where U is the unknown value, C1 is the average control value obtained for 4.76% DMSO, and C2 is the average control value obtained for 0.035 M EDTA. Data were fitted with a curve described by: y=((Vmax*x)/(K+x))+Y2 where Vmax is the upper asymptote, Y2 is the Y intercept, and K is the IC50. The results for each compound were recorded as pIC50s, calculated as follows: pIC50=−Log 10(K)

[1] = system: BT474 and HN5 tumor cell lines; experiment: Celltiter Glo growth inhibition assay (cellular Method B); format: cell-based; conditions: Homo sapiens, BT-474, 72 h; Table 2, Method B Celltiter Glo, 3 days; class over BT474 and HN5;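 note: class counts the more potent of the two cell lines (BT474 or HN5)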
Description: (§1) Human breast tumor cells (BT474) were cultured in RPMI, (Invitrogen, 22400) containing 10% fetal bovine serum (FBS). Human head and neck tumor cells (HN5) were cultured in low glucose DMEM (Invitrogen, 12320) containing 10% FBS. Human colon tumor cells (Colo205) were cultured in DMEM (Invitrogen, 10564) containing 10% FBS. All cell lines were maintained at 37° C. in a humidified 5% CO2, 95% air incubator. Cells were harvested using trypsin/EDTA, counted using a haemocytometer, and plated in 30 microliters of the appropriate media described above, at the following densities, in a half area, black-walled, 96-well tissue culture plate (Corning 3882): BT474 3,000 cells/well, HN5 500 cells/well and Colo205 cells, 3,000 cells/well. The next day, compounds were diluted in DMEM containing 100 mg/ml gentamicin, from 10 mM stock solutions in DMSO. 30 microliters/well of these dilutions were added to the 30 microliters/well of media currently on the cell plates. Medium containing 0.6% DMSO was added to control wells. The final concentration of DMSO in all wells was 0.3%. Cells were incubated at 37° C., 5% CO2 for 3 days. Cell biomass was estimated using Celltiter Glo (Promega G7571). Briefly, plates were removed from the incubator and allowed to equilibrate to rt for 30 minutes. 60 microliters of Celltiter Glo reagent were added to each well of the treated cells and plates were shaken on an orbital plate shaker for 2 min. Plates were incubated without shaking for 30 more min and read in a luminometer with an integration time of 0.5 seconds per well. Percent inhibition of cell growth was calculated relative to vehicle treated control wells. Concentration of compound that inhibits 50% of vehicle control cell growth (IC50) was interpolated using nonlinear regression (Levenberg-Marquardt) and the equation, y=Vmax*(1−(x/(K+x)))+Y2, where “K” was equal to the IC50.

Colo205 tumor cell lines = experiment: as above; format: cell-based; conditions: Homo sapiens, COLO 205, 72 h, Table 3, Method B Celltiter Glo, 3 days
Description: as §1

IC50 [1] [nM]	IC50 (Colo205 tumor cell lines) [nM]	Compound	Activity (Method) (ErbB2 or EGFR)
100 to 1000	> 1000	O=C(Cc1c[nH]c2ccccc12)Nc1cccc(-c2nn3ccccc3c2-c2ccnc(Nc3cccc(-c4cnco4)c3)n2)c1 [Example 18, 2-(1H-Indol-3-yl)-N-{3-[3-(2-{[3-(1,3-oxazol-5-yl)phenyl]amino}-4-pyrimidinyl)pyrazolo[1,5-a]pyridin-2-yl]phenyl}acetamide]	++ (B) (at least one pIC50 measurement greater than 6 against either ErbB2 or EGFR but no measurement greater than pIC50 of 7)
> 1000	> 1000	O=C(Cc1cccs1)Nc1cccc(-c2nn3cc(F)ccc3c2-c2ccnc(Nc3cccc(F)c3)n2)c1 [Example 33, N-[3-(6-fluoro-3-{2-[(3-fluorophenyl)amino]-4-pyrimidinyl}pyrazolo[1,5-a]pyridin-2-yl)phenyl]-2-(2-thienyl)acetamide]	++ (B) (at least one pIC50 measurement greater than 6 against either ErbB2 or EGFR but no measurement greater than pIC50 of 7)
100 to 1000	100 to 1000	O=C(Cc1ccccn1)Nc1cccc(-c2nn3ccccc3c2-c2ccnc(Nc3cccc(-c4cnco4)c3)n2)c1 [Example 23, N-{3-[3-(2-{[3-(1,3-Oxazol-5-yl)phenyl]amino}-4-pyrimidinyl)pyrazolo[1,5-a]pyridin-2-yl]phenyl}-2-(2-pyridinyl)acetamide]	+++ (B) (at least one pIC50 measurement of greater than 7 against either ErbB2 or EGFR)
> 1000	> 1000	O=C(Cc1ccncc1)Nc1cccc(-c2nn3ccccc3c2-c2ccnc(Nc3cccc(-c4cnco4)c3)n2)c1 [Example 22, N-{3-[3-(2-{[3-(1,3-Oxazol-5-yl)phenyl]amino}-4-pyrimidinyl)pyrazolo[1,5-a]pyridin-2-yl]phenyl}-2-(4-pyridinyl)acetamide]	+++ (B) (at least one pIC50 measurement of greater than 7 against either ErbB2 or EGFR)
100 to 1000	100 to 1000	O=C(Cc1cccs1)Nc1cc(-c2nn3ccccc3c2-c2ccnc(Nc3cccc(CN4CCCC4)c3)n2)ccc1F [Example 61, N-{2-Fluoro-5-[3-(2-{[3-(1-pyrrolidinylmethyl)phenyl]amino}-4-pyrimidinyl)pyrazolo[1,5-a]pyridin-2-yl]phenyl}-2-(2-thienyl)acetamide]	++ (B) (at least one pIC50 measurement greater than 6 against either ErbB2 or EGFR but no measurement greater than pIC50 of 7)
100 to 1000	100 to 1000	CN(C)Cc1cccc(Nc2nccc(-c3c(-c4cccc(NC(=O)Cc5cccs5)c4)nn4ccccc34)n2)c1 [Example 7, N-(3-{3-[2-({3-[(Dimethylamino)methyl]phenyl}amino)-4-pyrimidinyl]pyrazolo[1,5-a]pyridin-2-yl}phenyl)-2-(2-thienyl)acetamide]	+++ (B) (at least one pIC50 measurement of greater than 7 against either ErbB2 or EGFR)
> 1000	100 to 1000	COc1ccc(-c2nn3ccccc3c2-c2ccnc(Nc3ccc4c(c3)CN(C)CC4)n2)cc1NC(=O)Cc1cccs1 [Example 49, N-[2-Methoxy-5-(3-{2-[(2-methyl-1,2,3,4-tetrahydroisoquinolin-7-yl)amino]pyrimidin-4-yl}pyrazolo[1,5-a]pyridin-2-yl)phenyl]-2-(2-thienyl)acetamide]	+ (B) (no pIC50 measurement greater than 6 against either ErbB2 or EGFR)
> 1000	> 1000	CN(C)CCOc1cccc(Nc2nccc(-c3c(-c4cccc(NC(=O)Cc5cccs5)c4)nn4cccc(F)c34)n2)c1 [Example 31, N-[3-(3-{2-[(3-{[2-(dimethylamino)ethyl]oxy}phenyl)amino]-4-pyrimidinyl}-4-fluoropyrazolo[1,5-a]pyridin-2-yl)phenyl]-2-(2-thienyl)acetamide]	++ (B) (at least one pIC50 measurement greater than 6 against either ErbB2 or EGFR but no measurement greater than pIC50 of 7)
100 to 1000	> 1000	Cc1cc(CC(=O)Nc2cccc(-c3nn4ccccc4c3-c3ccnc(Nc4cccc(-c5cnco5)c4)n3)c2)on1 [Example 19, 2-(3-Methyl-5-isoxazolyl)-N-{3-[3-(2-{[3-(1,3-oxazol-5-yl)phenyl]amino}-4-pyrimidinyl)pyrazolo[1,5-a]pyridin-2-yl]phenyl}acetamide]	+++ (B) (at least one pIC50 measurement of greater than 7 against either ErbB2 or EGFR)
100 to 1000	100 to 1000	CN(C)CCNCc1cccc(Nc2nccc(-c3c(-c4cccc(NC(=O)Cc5cccs5)c4)nn4ccccc34)n2)c1 [Example 40, N-{3-[3-(2-{[3-({[2-(dimethylamino)ethyl]amino}methyl)phenyl]-amino}-4-pyrimidinyl)pyrazolo[1,5-a]pyridin-2-yl]phenyl}-2-(2-thienyl)acetamide]	+++ (B) (at least one pIC50 measurement of greater than 7 against either ErbB2 or EGFR)
100 to 1000	100 to 1000	O=C(Cc1c(F)cccc1F)Nc1cccc(-c2nn3ccccc3c2-c2ccnc(Nc3cccc(-c4cnco4)c3)n2)c1 [Example 20, 2-(2,6-Difluorophenyl)-N-{3-[3-(2-{[3-(1,3-oxazol-5-yl)phenyl]amino}-4-pyrimidinyl)pyrazolo[1,5-a]pyridin-2-yl]-phenyl}acetamide]	+++ (B) (at least one pIC50 measurement of greater than 7 against either ErbB2 or EGFR)
> 1000	> 1000	Cc1ccc(-c2nn3ccccc3c2-c2ccnc(Nc3cc(OCCN(C)C)ccc3C)n2)cc1NC(=O)Cc1cccs1 [Example 57, N-[5-(3-{2-[(5-{[2-(Dimethylamino)ethyl]oxy}-2-methylphenyl)amino]-4-pyrimidinyl}pyrazolo[1,5-a]pyridin-2-yl)-2-methylphenyl]-2-(2-thienyl)acetamide]	++ (B) (at least one pIC50 measurement greater than 6 against either ErbB2 or EGFR but no measurement greater than pIC50 of 7)
> 1000	> 1000	O=C(Cc1cccs1)Nc1cccc(-c2nn3cccc(F)c3c2-c2ccnc(Nc3cccc(F)c3)n2)c1 [Example 32, N-[3-(4-fluoro-3-{2-[(3-fluorophenyl)amino]-4-pyrimidinyl}pyrazolo[1,5-a]pyridin-2-yl)phenyl]-2-(2-thienyl)acetamide]	+ (B) (no pIC50 measurement greater than 6 against either ErbB2 or EGFR)
